# Experimental data from patent US7198782B2, “Method for the treatment of diabetes” (priority 1998, dated 2007).
# Assays:
# [1] = tested on: secretion of gastric acid; experiment: Inhibitory effect on the secretion of gastric acid in rats (Example 7); type: in vivo, rats (Wister line); conditions: peptide 10 μg/kg with gastrin 4 μg/kg, hypodermic injection, gastric juice pH 10 minutes later, control pH 3.2 / 3.1
# Procedure: The inhibitory effect on the secretion of gastric acid was evaluated using rats (Wister line), by dissolving in physiological saline, the peptides synthesized in Example 6 and gastrin, a stimulator of gastric acid secretion, hypodermically injecting the previous solution, and measuring the secretion of gastric acid 10 minutes later. Gastrin was administered to obtain a dose of 4 μg/kg and the peptides of the invention were administered to obtain a dose of 10 μg/kg. The rats were immobilized on a fixator, their gastric juice was sampled by inserting a probe through the mouth into the stomach, and the pH was measured to evaluate the secretion of gastric acid. When the secretion of gastric acid was compared between the reference group with no substance administered and the administered group, the following was obtained for the inhibition on the secretion of gastric acid.
# [2] = tested on: BxPC-3 cells; experiment: Stimulating effect on insulin secretion, BxPC-3 cells (Example 3); type: cell-based, human; conditions: supernatant of BxPC-3 cells, 0.01 mg/well, 24 hours; control 37.6
# Procedure: BxPC-3 cells which are insulin producing cells derived from a human pancreas (source: Dainippon Pharmaceutical Co.,Ltd. ), were cultured in RPMI 1640 media containing 10% calf fetal serum, and grown with 5% carbon dioxide gas in a humidified incubator at 37° C. The cells were treated with trypsin prior to seeding with a density of 1×10^5/well; when they reached confluency, the peptide of the invention synthesized in Example 2, the peptides A and B, which are unrelated to the invention and whose activities are unknown, as well as a control (physiological saline) were added at 0.01 mg/well, and the cells were cultured for 24 hours. Then, the concentrations of insulin present in the supernatents were measured by colorimetry with an insulin assaying kit (source: Shibayagi Co.,Ltd.).
# [3] = tested on: HIT cells; experiment: Stimulation of insulin production by insulin producing cells, HIT cells (Example 5); type: cell-based, hamster; conditions: for rate of stimulation for the production of insulin (%): HIT cells, 12 hours, no substance added = 100%
# Procedure: (§1) HIT cells, which are insulin producing hamster pancreatic cells, and BxPC-3 cells, which are human pancreatic cells (source: Dai Nippon Seiyaku), were cultured in RPMI 1640 media (source: Dai Nippon Seiyaku) containing 10% calf fetal serum, and grown with 5% carbon dioxide gas in a humidified incubator at 37° C. The cells were treated with trypsin for seeding 96-well culture plates with a density of 1×10^4/well; when the cells reached confluency, the media was exchanged to a F12 serum-free media and the cells were cultured for 8 hours. Then, the peptides of the invention produced in Example 4 were dissolved in serum-free RPMI 1640 media; various doses of the peptides indicated by the sequence number 1 for the HIT cells, and various doses of the peptides indicated by the sequence number 5 for the BxPC-3 cells, were added to the wells and the cultures were further maintained for 12 hours. After the cultures have been performed, the stimulatory effects of the peptides of the invention on the production of insulin by the cells were measured by the insulin immunoassay, to seek stimulatory effects on production in comparison to the non-treated groups. Also, the insulin immunoassay, and the calculations for the rates of stimulation for the production of insulin were actually performed as follows. Various dilutions of the supernatents from the cell culture media were added to the wells coated with immobilized anti-insulin antibodies, and reacted with anti-insulin antibody solutions, according to the protocol of the insulin assay kit commercialized by Shibayagi (Ltd.). The detection was by reacting the biotin labeling the antibodies with the steptavidin-conjugated peroxydase and measuring the coloration catalyzed by the peroxydase. The concentration of insulin was calculated from a standard curve for insulin. When examining the rates of stimulation for the production of insulin in the groups with various doses added, by taking the rate of stimulation for the production of insulin in the reference group with no substance added as 100%, the following was obtained.
# [4] = tested on: BxPC-3 cells; experiment: Stimulation of insulin production by insulin producing cells, BxPC-3 cells (Example 5); type: cell-based, human; conditions: 12 hours, no substance added = 100%
# Procedure: as §1
# [5] = tested on: GH3 cells; experiment: Stimulation of growth hormone production by growth hormone producing cells (Example 9); type: cell-based, Hamster; conditions: 3 days, no peptides added = 100%
# Procedure: Hamster-derived GH3 cells (source: IFO, deposition No. 50105), which are growth hormone-producing hypophyseal cells, were grown in an F12 media (source: Dai Nippon Seiyaku) containing 15% calf fetal serum, and grown with 5% carbon dioxide gas in a humidified incubator at 37° C. The cells were treated with trypsin for seeding 96-well culture plates with a density of 1×10^4/well; when the cells reached confluency, the media was exchanged to a 15% serum F12 media and the cells were cultured for 12 hours. Then, the peptides of the invention produced in Example 7 were dissolved in 15% serum F12 media to add various doses of the peptides to the wells, and the cultures were further maintained for 3 days. After the cultures have been performed, the stimulatory effects of the peptides on the production of growth hormones by the cells were measured by the growth hormone immunoassay, to examine stimulatory the effects on the production, in comparison with the non-treated groups. Also, the growth hormone immunoassay was performed with a method of the art, the sandwich ELISA, i.e., various dilutions of the supernatents from the cell culture media were added to wells coated with immobilized anti-growth hormone antibodies, and reacted for 180 minutes at room temperature, washed before further addition of anti-growth hormone antibodies labeled with peroxydase, and reacted for 60 minutes at room temperature. After washing, the coloring reaction catalyzed by the peroxydase was measured by measuring the absorbance. The concentration of growth hormone was examined based on standard curves obtained by performing the same sandwich ELISA using already known concentrations of growth hormone. When examining the rates of stimulation for the production of growth hormones in the groups with various doses added, by taking the rate of stimulation for the production of growth hormone for the reference group with no peptides added as 100%, the following was obtained.
substance,measurement,setting,value
Sequence No. 3: peptide predicted by comparing the cDNA sequences of the gastrin receptor; gastric acid secretion regulator (GGAGP; Artificial polypeptide which regulates insulin production.),Gastric juice pH,[1],5.3 pH
Sequence No. 4: peptide predicted by comparing the cDNA sequences of the gastrin receptor; gastric acid secretion regulator (MSVGGNMLIIV; Artificial polypeptide having inhibitory effect on gastric acid secretion),Gastric juice pH,[1],4.8 pH
"peptide of the invention: peptide synthesized in Example 2, printed as having the amino acid sequence of sequence number 2 (GIP receptor derived insulin production regulator) (VGRDPAAAPALWRRRGTAPPLSAIVSQV; Artificial peptide which regulates insulin production)",insulin concentration,[2],148 µg/mL
sequence number 1: peptide of the missing (spliced) region predicted from glucagon receptor cDNAs; increases insulin production (PKAPSAQ; Artificial polypeptide which inhibits insulin production.),rate of stimulation for the production of insulin (%),[3]; 0.01 μg/well,102.8%
same,rate of stimulation for the production of insulin (%),[3]; 0.1 μg/well,131.6%
same,rate of stimulation for the production of insulin (%),[3]; 1 μg/well,184.9%
same,rate of stimulation for the production of insulin (%),[3]; 10 μg/well,203.1%
same,production of insulin by insulin producing cells,"[3]; summary in the description, cells and dose not named",increased significantly
"sequence number 5: peptide predicted from glucagon receptor cDNAs, variant of sequence number 1; increases insulin production (PQVPSAQ; Artificial polypeptide having inhibitory effects on insulin secretion)",rate of stimulation for the production of insulin (%),[4]; 0.01 μg/well,110.9%
same,rate of stimulation for the production of insulin (%),[4]; 0.1 μg/well,123.3%
same,rate of stimulation for the production of insulin (%),[4]; 1 μg/well,198.2%
same,rate of stimulation for the production of insulin (%),[4]; 10 μg/well,181.1%
sequence number 6: peptide predicted by comparing the amino acid sequences of somatostatin receptor; growth hormone production regulator (PSCQWVQAPACQ; Artificial polypeptide which promotes growth hormone secretion.),stimulation rate of growth hormone production (%),[5]; 0.01 μg/well,101.2%
same,stimulation rate of growth hormone production (%),[5]; 0.1 μg/well,124.1%
same,stimulation rate of growth hormone production (%),[5]; 1 μg/well,175.6%
same,stimulation rate of growth hormone production (%),[5]; 10 μg/well,190.4%
